# Laboratory results published in ChEMBL document CHEMBL1201862, “PubChem BioAssay data set” (2004).
#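 In this assay, cells in 96-well plates receive the compound at five concentrations for 48 hours. Endpoints are linearly interpolated between the surrounding concentrations. GI50 marks 50% less growth.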 The source made the active and inactive calls. No stated cut-off is given here; in the data, active = GI50 up to about 1.1 µM and inactive = higher.
# What was measured:
# Assay in all cases: inhibition of tumour cell growth, NCI panel, 48 h
# SK-MEL-5 = tested on: SK-MEL-5
# HCT-15 = tested on: HCT-15
# UACC-257 = tested on: UACC-257
# M14 = tested on: M14
# HOP-92 = tested on: HOP-92
# HCC 2998 = tested on: HCC 2998
# LOX IMVI = tested on: LOX IMVI
# HL-60 = tested on: HL-60
# SN12C = tested on: SN12C
# SF-295 = tested on: SF-295
# NCI-H226 = tested on: NCI-H226
# SW-620 = tested on: SW-620
# RPMI-8226 = tested on: RPMI-8226
# SF-268 = tested on: SF-268
# SK-MEL-2 = tested on: SK-MEL-2
# SR = tested on: SR
Compound,GI50 (SK-MEL-5),GI50 (HCT-15) [µM],GI50 (UACC-257),GI50 (M14),GI50 (HOP-92),GI50 (HCC 2998),GI50 (LOX IMVI),GI50 (HL-60),GI50 (SN12C),GI50 (SF-295),GI50 (NCI-H226),GI50 (SW-620),GI50 (RPMI-8226),GI50 (SF-268),GI50 (SK-MEL-2),GI50 (SR)
Cc1[nH]nc2c1C(=O)C=C(N(CCO)c1ccccc1)C2=O,> 100 µM (inactive),> 100,> 100 µM (inactive),> 100 µM (inactive),> 100 µM (inactive),> 100 µM (inactive),4.05 µM (inactive),> 100 µM (inactive),> 100 µM (inactive),> 100 µM (inactive),> 100 µM (inactive),> 100 µM (inactive),> 100 µM (inactive),,,
CCN(CC)CCNC(=O)c1cccc2nc3ccccc3nc12,> 46 µM (inactive),6.53,7.26 µM (inactive),18.5 µM (inactive),38.4 µM (inactive),14.2 µM (inactive),4.4 µM (inactive),,10.3 µM (inactive),11 µM (inactive),8.15 µM (inactive),5.48 µM (inactive),7.64 µM (inactive),0.318 µM (active),13.3 µM (inactive),
CC(=O)C1=CSC2[C@H](NC(=O)Cc3ccccc3)C(=O)N2C1C(=O)OC(c1ccccc1)c1ccccc1 (some centres not stated),65.6 µM (inactive),,> 100 µM (inactive),> 100 µM (inactive),46.5 µM (inactive),> 100 µM (inactive),,35.2 µM (inactive),> 100 µM (inactive),40.7 µM (inactive),> 100 µM (inactive),93.5 µM (inactive),39.5 µM (inactive),47.6 µM (inactive),> 100 µM (inactive),36.7 µM (inactive)
Sc1nnc(COc2ccc(Cl)cc2)[nH]1,> 100 µM (inactive),> 100,> 100 µM (inactive),> 100 µM (inactive),> 100 µM (inactive),> 100 µM (inactive),> 100 µM (inactive),> 100 µM (inactive),> 100 µM (inactive),> 100 µM (inactive),> 100 µM (inactive),> 100 µM (inactive),> 100 µM (inactive),> 100 µM (inactive),> 100 µM (inactive),
O=C(CCc1n[nH]c(=S)o1)Nc1ccccc1C(F)(F)F,> 100 µM (inactive),20.2,> 100 µM (inactive),> 100 µM (inactive),> 100 µM (inactive),> 100 µM (inactive),,> 100 µM (inactive),> 100 µM (inactive),> 100 µM (inactive),> 100 µM (inactive),18.2 µM (inactive),25.9 µM (inactive),> 100 µM (inactive),,
CCOC(=O)C(/C(=N/NC(=O)OC)C(=O)Nc1ccc(C(C)=O)cc1)c1cnc2ccccc2n1 (configuration not stated),> 100 µM (inactive),> 100,> 100 µM (inactive),> 100 µM (inactive),> 100 µM (inactive),> 100 µM (inactive),> 100 µM (inactive),> 100 µM (inactive),> 100 µM (inactive),> 100 µM (inactive),> 100 µM (inactive),> 100 µM (inactive),,> 100 µM (inactive),,> 100 µM (inactive)
O=c1c2cccc3cccc(c4n1CCCN=4)c32,> 100 µM (inactive),> 100,> 100 µM (inactive),> 100 µM (inactive),> 100 µM (inactive),,20.1 µM (inactive),47.5 µM (inactive),> 100 µM (inactive),> 100 µM (inactive),> 100 µM (inactive),92.5 µM (inactive),> 100 µM (inactive),> 100 µM (inactive),> 100 µM (inactive),31.3 µM (inactive)
COC(=O)c1cc(OC(C)=O)c2c(OC)ccc(OC)c2c1,> 100 µM (inactive),64.6,> 100 µM (inactive),> 100 µM (inactive),> 100 µM (inactive),,,,> 100 µM (inactive),> 100 µM (inactive),> 100 µM (inactive),> 100 µM (inactive),> 100 µM (inactive),,> 100 µM (inactive),86.1 µM (inactive)
C=CCCc1cc(OC)ccc1CN(C)C(C)(C)CO,> 100 µM (inactive),> 100,> 100 µM (inactive),,> 100 µM (inactive),,> 100 µM (inactive),,> 100 µM (inactive),> 100 µM (inactive),,> 100 µM (inactive),> 100 µM (inactive),> 100 µM (inactive),> 100 µM (inactive),> 100 µM (inactive)
COC(=O)c1cc(C)c(C)c2c1NC(=O)CNC2=O,,> 100,> 100 µM (inactive),> 100 µM (inactive),,> 100 µM (inactive),,> 100 µM (inactive),> 100 µM (inactive),> 100 µM (inactive),,> 100 µM (inactive),> 100 µM (inactive),,> 100 µM (inactive),> 100 µM (inactive)
CC1OC(=O)N(CCCC=C2SCCCS2)C1=O (configuration not stated),,> 100,> 100 µM (inactive),> 100 µM (inactive),> 100 µM (inactive),,> 100 µM (inactive),,> 100 µM (inactive),> 100 µM (inactive),> 100 µM (inactive),> 100 µM (inactive),> 100 µM (inactive),> 100 µM (inactive),> 100 µM (inactive),
CC(=O)NNc1nc(C)c(C(/C=C/c2ccc(Cl)cc2)=N/NC(=S)NN)s1,> 100 µM (inactive),> 100,> 100 µM (inactive),> 100 µM (inactive),> 100 µM (inactive),,> 100 µM (inactive),> 100 µM (inactive),> 100 µM (inactive),> 100 µM (inactive),> 100 µM (inactive),> 100 µM (inactive),> 100 µM (inactive),> 100 µM (inactive),> 100 µM (inactive),> 100 µM (inactive)
CC(Oc1ccc(OCC2CCCCC2)cc1)C(=O)NCCO (configuration not stated),> 100 µM (inactive),> 100,49.7 µM (inactive),> 100 µM (inactive),,,26.7 µM (inactive),> 100 µM (inactive),> 100 µM (inactive),23.4 µM (inactive),> 100 µM (inactive),,,> 100 µM (inactive),> 100 µM (inactive),
Cn1c2c(c3ccccc31)CCN(CCCN1CCN(c3cccc(Cl)c3)CC1)C2=O,15.1 µM (inactive),25.1,,17.1 µM (inactive),3.91 µM (inactive),,20.2 µM (inactive),6.85 µM (inactive),21.4 µM (inactive),,,28 µM (inactive),12.2 µM (inactive),15.6 µM (inactive),,
CC(C)C(Sc1nc(-c2ccccc2)c(-c2ccccc2)[nH]1)C(=O)NN (configuration not stated),> 100 µM (inactive),> 100,> 100 µM (inactive),> 100 µM (inactive),73.1 µM (inactive),,> 100 µM (inactive),31.6 µM (inactive),> 100 µM (inactive),74.3 µM (inactive),> 100 µM (inactive),> 100 µM (inactive),> 100 µM (inactive),> 100 µM (inactive),> 100 µM (inactive),
CCOC(=O)Cn1c(=O)n(C)c(=O)c2c1ncn2Cc1ccccc1,> 100 µM (inactive),> 100,,> 100 µM (inactive),> 100 µM (inactive),,,,> 100 µM (inactive),,> 100 µM (inactive),> 100 µM (inactive),> 100 µM (inactive),> 100 µM (inactive),> 100 µM (inactive),> 100 µM (inactive)
COC(=O)/C(=N\NC(N)=S)C(C(=O)OC)C(=O)C(=O)Nc1ccc(C)cc1 (configuration not stated),> 100 µM (inactive),> 100,> 100 µM (inactive),> 100 µM (inactive),,> 100 µM (inactive),> 100 µM (inactive),> 100 µM (inactive),> 100 µM (inactive),> 100 µM (inactive),> 100 µM (inactive),> 100 µM (inactive),> 100 µM (inactive),> 100 µM (inactive),> 100 µM (inactive),> 100 µM (inactive)
COc1ccc(/C=N\O[Si](C)(C)C(C)(C)C)cc1O[Si](C)(C)C(C)(C)C,17.3 µM (inactive),18.2,20.8 µM (inactive),20 µM (inactive),22.6 µM (inactive),17.3 µM (inactive),20 µM (inactive),19.6 µM (inactive),19.2 µM (inactive),17.2 µM (inactive),,18.7 µM (inactive),17.9 µM (inactive),21.5 µM (inactive),16.5 µM (inactive),
OCCCCn1cnc2c(O)ncnc21,> 100 µM (inactive),> 100,> 100 µM (inactive),> 100 µM (inactive),> 100 µM (inactive),> 100 µM (inactive),> 100 µM (inactive),> 100 µM (inactive),> 100 µM (inactive),> 100 µM (inactive),> 100 µM (inactive),> 100 µM (inactive),> 100 µM (inactive),> 100 µM (inactive),,> 100 µM (inactive)
S=c1[nH]c2ccc(Br)cc2c(=S)n1-c1ccccc1,16.4 µM (inactive),16.1,16.4 µM (inactive),20.7 µM (inactive),20 µM (inactive),13.7 µM (inactive),19.2 µM (inactive),,20.6 µM (inactive),16.9 µM (inactive),24.5 µM (inactive),32.7 µM (inactive),8.26 µM (inactive),11 µM (inactive),16.4 µM (inactive),
COc1ccc([C@@H]2CC(=O)N2)cc1,> 100 µM (inactive),> 100,> 100 µM (inactive),> 100 µM (inactive),> 100 µM (inactive),,,> 100 µM (inactive),> 100 µM (inactive),> 100 µM (inactive),> 100 µM (inactive),,> 100 µM (inactive),> 100 µM (inactive),> 100 µM (inactive),> 100 µM (inactive)
